The results in this text go back to ChEMBL document CHEMBL1129537, “The squalestatins: inhibitors of squalene synthase. Enzyme inhibitory activities and in vivo evaluation of C3-modified analogues” (J Med Chem, 1996).

What is called IC50 is the concentration needed to halve the response being measured.

Some results are limits rather than exact numbers.

Assay [1] deals with T1, Squalene synthase (Rattus norvegicus, UniProt Q02769).
T1 sequence (Q02769 whole entry): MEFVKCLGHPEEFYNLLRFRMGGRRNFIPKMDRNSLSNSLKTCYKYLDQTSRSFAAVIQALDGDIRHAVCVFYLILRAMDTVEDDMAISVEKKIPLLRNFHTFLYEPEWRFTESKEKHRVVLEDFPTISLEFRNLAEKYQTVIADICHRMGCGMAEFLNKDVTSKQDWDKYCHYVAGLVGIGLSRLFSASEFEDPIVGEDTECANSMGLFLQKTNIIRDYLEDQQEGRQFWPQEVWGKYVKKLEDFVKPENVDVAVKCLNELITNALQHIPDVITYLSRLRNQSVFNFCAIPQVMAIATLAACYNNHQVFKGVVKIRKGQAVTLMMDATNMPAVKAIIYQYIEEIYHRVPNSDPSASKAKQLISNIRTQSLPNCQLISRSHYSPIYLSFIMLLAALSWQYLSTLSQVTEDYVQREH
Nature of the assay: In vitro inhibitory activity against Squalene synthase from rats.

A short description of assay [2]: Effect on % of cholesterol reduction measured on serum cholesterol level in marmosets after single iv dose 50 mg/kg on day 2. Format: functional, Callitrichinae.
Assay [3] is described as follows: Effect on % of cholesterol reduction measured on serum cholesterol level in marmosets after single iv dose (3 times a day for 3 days) 16.7 mg/kg on day 7. Format: functional, Callitrichinae.
Assay [4] is described as follows: Effect on % of cholesterol reduction measured on serum cholesterol level in marmosets after single iv dose 16.7 mg/kg on day 2. Format: functional, Callitrichinae.
Assay [5] in a line: Effect on % of cholesterol reduction measured on serum cholesterol level in marmosets after single iv dose 10 mg/kg on day 3. Format: functional, Callitrichinae.
The nature of assay [6]: Effect on % of cholesterol reduction measured on serum cholesterol level in marmosets after single iv dose 16.7 mg/kg on day 3. Format: functional, Callitrichinae.
Assay [7] is described as follows: Effect on % of cholesterol reduction measured on serum cholesterol level in marmosets after single iv dose 30 mg/kg on day 3. The assay is classed as functional, Callitrichinae.
Assay [8] is described as follows: Effect on % of cholesterol reduction measured on serum cholesterol level in marmosets after single iv dose 10 mg/kg on day 7. Format: functional, Callitrichinae.
A short description of assay [9]: Effect on % of cholesterol reduction measured on serum cholesterol level in marmosets after single iv dose 50 mg/kg on day 7. The assay is classed as functional, Callitrichinae.
The nature of assay [10]: Effect on % of cholesterol reduction measured on serum cholesterol level in marmosets after single iv dose 30 mg/kg on day 2. Format: functional, Callitrichinae.
The nature of assay [11]: Effect on % of cholesterol reduction measured on serum cholesterol level in marmosets after single iv dose 10 mg/kg on day 2. The assay is classed as functional, Callitrichinae.
The nature of assay [12]: Effect on % of cholesterol reduction measured on serum cholesterol level in marmosets after single iv dose 30 mg/kg on day 7. The assay is classed as functional, Callitrichinae.
Assay [13] in a line: Effect on % of cholesterol reduction measured on serum cholesterol level in marmosets after single iv dose 50 mg/kg on day 3. Format: functional, Callitrichinae.

`C=C(CC[C@]12O[C@H](COC)[C@@](O)(C(=O)O)[C@](C(=O)O)(O1)[C@H](OC(=O)/C=C/[C@@H](C)C[C@@H](C)CC)[C@H]2O)[C@@H](OC(C)=O)[C@H](C)Cc1ccccc1` registered an IC50 in assay [1] of 13 nM.
The same measure, in the same setting: the same measure for `C=C(CC[C@]12O[C@H](CN)[C@@](O)(C(=O)O)[C@](C(=O)O)(O1)[C@H](O)[C@H]2O)[C@@H](OC(C)=O)[C@H](C)Cc1ccccc1`: more than 1000 nM; for `C=C(CC[C@]12O[C@H](CN)[C@@](O)(C(=O)O)[C@](C(=O)O)(O1)[C@H](OC(=O)/C=C/[C@@H](C)C[C@@H](C)CC)[C@H]2O)[C@@H](OC(C)=O)[C@H](C)Cc1ccccc1`: 4 nM.
Still for that read-out and setting: the same measure for `C=C(CC[C@]12O[C@H](CN=C(N)N)[C@@](O)(C(=O)O)[C@](C(=O)O)(O1)[C@H](OC(=O)/C=C/[C@@H](C)C[C@@H](C)CC)[C@H]2O)[C@@H](OC(C)=O)[C@H](C)Cc1ccccc1`: 65 nM; for `C=C(CC[C@]12O[C@H](CNS(=O)(=O)C(F)(F)F)[C@@](O)(C(=O)O)[C@](C(=O)O)(O1)[C@H](O)[C@H]2O)[C@@H](OC(C)=O)[C@H](C)Cc1ccccc1`: 1000 nM.
Same read-out and setting: for `C=C(CC[C@]12O[C@H](COC)[C@@](O)(C(=O)O)[C@](C(=O)O)(O1)[C@H](O)[C@H]2O)[C@@H](OC(C)=O)[C@H](C)Cc1ccccc1` the value was more than 1000 nM.
With `C=C(CC[C@]12O[C@H](CO)[C@@](O)(C(=O)O)[C@](C(=O)O)(O1)[C@H](OC(=O)/C=C/[C@@H](C)C[C@@H](C)CC)[C@H]2O)[C@@H](OC(C)=O)[C@H](C)Cc1ccccc1`, the Reduction in [2] is given as 31%; in [3] it was 32%; in [4], 47%; in assay [5], 2%; in assay [6] it was 62%; in [7], 20%. Also, the Reduction amounted to 14% in assay [8]; 28% in assay [9]; 30% in [10]; 5% in assay [11]; 16% in assay [12]; 21% in assay [13].
The compound `C=C(CC[C@]12O[C@H](CNS(=O)(=O)C(F)(F)F)[C@@](O)(C(=O)O)[C@](C(=O)O)(O1)[C@H](OC(=O)/C=C/[C@@H](C)C[C@@H](C)CC)[C@H]2O)[C@@H](OC(C)=O)[C@H](C)Cc1ccccc1` showed an IC50 in [1] of 60 nM.
The compound `C=C(CC[C@]12O[C@H](CNC(N)=O)[C@@](O)(C(=O)O)[C@](C(=O)O)(O1)[C@H](O)[C@H]2O)[C@@H](OC(C)=O)[C@H](C)Cc1ccccc1` registered an IC50 in [1] of more than 1000 nM.
The same measure, in the same setting: the same measure for `C=C(CC[C@]12O[C@H](C(C)=O)[C@@](O)(C(=O)O)[C@](C(=O)O)(O1)[C@H](O)[C@H]2O)[C@@H](OC(C)=O)[C@H](C)Cc1ccccc1`: 500 nM; for `C=C(CC[C@]12O[C@H](C(C)=O)[C@@](O)(C(=O)O)[C@](C(=O)O)(O1)[C@H](OC(=O)/C=C/[C@@H](C)C[C@@H](C)CC)[C@H]2O)[C@@H](OC(C)=O)[C@H](C)Cc1ccccc1`: 11 nM; for `C=C(CC[C@]12O[C@H](CN(C)C)[C@@](O)(C(=O)O)[C@](C(=O)O)(O1)[C@H](OC(=O)/C=C/[C@@H](C)C[C@@H](C)CC)[C@H]2O)[C@@H](OC(C)=O)[C@H](C)Cc1ccccc1`: 10 nM.
For the compound `C=C(CC[C@]12O[C@H](CNC(N)=O)[C@@](O)(C(=O)O)[C@](C(=O)O)(O1)[C@H](OC(=O)/C=C/[C@@H](C)C[C@@H](C)CC)[C@H]2O)[C@@H](OC(C)=O)[C@H](C)Cc1ccccc1`, half-maximal inhibition in assay [1] (IC50) required 3 nM. Compared with the last compound, the IC50 is about 3.3-fold lower.
